{"source": "ChEMBL document CHEMBL1201862", "about": "“PubChem BioAssay data set” (2004)", "assay_in_all_cases": "DTP human tumour cell line panel, 48 h", "key": {"A498": {"system": "A498"}, "DU-145": {"system": "DU-145"}, "HL-60": {"system": "HL-60"}, "K562": {"system": "K562"}, "LOX IMVI": {"system": "LOX IMVI"}, "MDA-MB-231": {"system": "MDA-MB-231"}, "MOLT-4": {"system": "MOLT-4"}, "NCI-H226": {"system": "NCI-H226"}, "NCI-H460": {"system": "NCI-H460"}, "NCI/ADR-RES": {"system": "NCI/ADR-RES"}, "OVCAR-5": {"system": "OVCAR-5"}, "RPMI-8226": {"system": "RPMI-8226"}, "SF-295": {"system": "SF-295"}, "SF-539": {"system": "SF-539"}, "SNB-19": {"system": "SNB-19"}, "SNB-75": {"system": "SNB-75"}, "T47D": {"system": "T47D"}, "TK-10": {"system": "TK-10"}, "UO-31": {"system": "UO-31"}, "SK-MEL-2": {"system": "SK-MEL-2"}}, "note": "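Growth conditions: 96-well plates. Treatment: test compound, 48 hours, 5 concentrations. Analysis: linear interpolation between bracketing concentrations; unreached endpoints set to highest concentration. GI50: concentration for 50% inhibition of growth.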 The source made the active and inactive calls. Cut-off read from the data, not from the text of the source: active = GI50 up to about 1.1 µM and inactive = higher."}
{"compound": "CCN1C(c2ccccc2)=CC(c2ccccc2)(C(Cl)(Cl)Cl)C=C1c1ccccc1", "values": [{"measurement": "GI50", "setting": "A498", "result": "17.3 µM (inactive)"}, {"measurement": "GI50", "setting": "DU-145", "result": "14.8 µM (inactive)"}, {"measurement": "GI50", "setting": "HL-60", "result": "1.1 µM (active)"}, {"measurement": "GI50", "setting": "K562", "result": "2.52 µM (inactive)"}, {"measurement": "GI50", "setting": "LOX IMVI", "result": "8.45 µM (inactive)"}, {"measurement": "GI50", "setting": "MDA-MB-231", "result": "3.4 µM (inactive)"}, {"measurement": "GI50", "setting": "MOLT-4", "result": "10.9 µM (inactive)"}, {"measurement": "GI50", "setting": "NCI-H226", "result": "19.2 µM (inactive)"}, {"measurement": "GI50", "setting": "NCI-H460", "result": "7.5 µM (inactive)"}, {"measurement": "GI50", "setting": "NCI/ADR-RES", "result": "40.1 µM (inactive)"}, {"measurement": "GI50", "setting": "OVCAR-5", "result": "15.1 µM (inactive)"}, {"measurement": "GI50", "setting": "RPMI-8226", "result": "2.22 µM (inactive)"}, {"measurement": "GI50", "setting": "SF-295", "result": "32.5 µM (inactive)"}, {"measurement": "GI50", "setting": "SF-539", "result": "15.6 µM (inactive)"}, {"measurement": "GI50", "setting": "SNB-19", "result": "4.46 µM (inactive)"}, {"measurement": "GI50", "setting": "SNB-75", "result": "5.06 µM (inactive)"}, {"measurement": "GI50", "setting": "T47D", "result": "0.44 µM (active)"}, {"measurement": "GI50", "setting": "TK-10", "result": "17.7 µM (inactive)"}, {"measurement": "GI50", "setting": "UO-31", "result": "34.6 µM (inactive)"}]}
{"compound": "OCC1NC(COC2OC(CO)C(O)C(O)C2O)C(O)C(O)C1O", "note": "(stereo not drawn)", "values": [{"measurement": "GI50", "setting": "A498", "result": "> 100 µM (inactive)"}, {"measurement": "GI50", "setting": "DU-145", "result": "> 100 µM (inactive)"}, {"measurement": "GI50", "setting": "HL-60", "result": "> 100 µM (inactive)"}, {"measurement": "GI50", "setting": "K562", "result": "> 100 µM (inactive)"}, {"measurement": "GI50", "setting": "MDA-MB-231", "result": "> 100 µM (inactive)"}, {"measurement": "GI50", "setting": "MOLT-4", "result": "> 100 µM (inactive)"}, {"measurement": "GI50", "setting": "NCI-H226", "result": "> 100 µM (inactive)"}, {"measurement": "GI50", "setting": "NCI-H460", "result": "> 100 µM (inactive)"}, {"measurement": "GI50", "setting": "NCI/ADR-RES", "result": "> 100 µM (inactive)"}, {"measurement": "GI50", "setting": "OVCAR-5", "result": "> 100 µM (inactive)"}, {"measurement": "GI50", "setting": "RPMI-8226", "result": "> 100 µM (inactive)"}, {"measurement": "GI50", "setting": "SF-295", "result": "> 100 µM (inactive)"}, {"measurement": "GI50", "setting": "SF-539", "result": "> 100 µM (inactive)"}, {"measurement": "GI50", "setting": "SK-MEL-2", "result": "> 100 µM (inactive)"}, {"measurement": "GI50", "setting": "SNB-19", "result": "> 100 µM (inactive)"}, {"measurement": "GI50", "setting": "SNB-75", "result": "> 100 µM (inactive)"}, {"measurement": "GI50", "setting": "T47D", "result": "> 100 µM (inactive)"}, {"measurement": "GI50", "setting": "TK-10", "result": "> 100 µM (inactive)"}, {"measurement": "GI50", "setting": "UO-31", "result": "> 100 µM (inactive)"}]}
{"compound": "COP(=O)(OC)C(Nc1ccc(Cc2ccc(NC(c3ccco3)P(=O)(OC)OC)cc2)cc1)c1ccco1", "note": "(stereo not drawn)", "values": [{"measurement": "GI50", "setting": "A498", "result": "19 µM (inactive)"}, {"measurement": "GI50", "setting": "DU-145", "result": "> 100 µM (inactive)"}, {"measurement": "GI50", "setting": "HL-60", "result": "> 100 µM (inactive)"}, {"measurement": "GI50", "setting": "K562", "result": "> 100 µM (inactive)"}, {"measurement": "GI50", "setting": "LOX IMVI", "result": "82.2 µM (inactive)"}, {"measurement": "GI50", "setting": "MDA-MB-231", "result": "15.9 µM (inactive)"}, {"measurement": "GI50", "setting": "MOLT-4", "result": "> 100 µM (inactive)"}, {"measurement": "GI50", "setting": "NCI-H226", "result": "> 100 µM (inactive)"}, {"measurement": "GI50", "setting": "NCI-H460", "result": "> 100 µM (inactive)"}, {"measurement": "GI50", "setting": "NCI/ADR-RES", "result": "> 100 µM (inactive)"}, {"measurement": "GI50", "setting": "OVCAR-5", "result": "46.8 µM (inactive)"}, {"measurement": "GI50", "setting": "SF-295", "result": "11.5 µM (inactive)"}, {"measurement": "GI50", "setting": "SF-539", "result": "4.79 µM (inactive)"}, {"measurement": "GI50", "setting": "SK-MEL-2", "result": "14 µM (inactive)"}, {"measurement": "GI50", "setting": "SNB-19", "result": "11.9 µM (inactive)"}, {"measurement": "GI50", "setting": "SNB-75", "result": "3.33 µM (inactive)"}, {"measurement": "GI50", "setting": "T47D", "result": "67.1 µM (inactive)"}, {"measurement": "GI50", "setting": "TK-10", "result": "8.77 µM (inactive)"}, {"measurement": "GI50", "setting": "UO-31", "result": "79.1 µM (inactive)"}]}
{"compound": "O=C1C(Br)=C(Br)C(=O)c2c(O)ccc(O)c21", "values": [{"measurement": "GI50", "setting": "A498", "result": "21.7 µM (inactive)"}, {"measurement": "GI50", "setting": "DU-145", "result": "12.1 µM (inactive)"}, {"measurement": "GI50", "setting": "HL-60", "result": "0.168 µM (active)"}, {"measurement": "GI50", "setting": "K562", "result": "0.596 µM (active)"}, {"measurement": "GI50", "setting": "MDA-MB-231", "result": "2.64 µM (inactive)"}, {"measurement": "GI50", "setting": "MOLT-4", "result": "0.0733 µM (active)"}, {"measurement": "GI50", "setting": "NCI-H226", "result": "28.4 µM (inactive)"}, {"measurement": "GI50", "setting": "NCI-H460", "result": "16.3 µM (inactive)"}, {"measurement": "GI50", "setting": "NCI/ADR-RES", "result": "12.2 µM (inactive)"}, {"measurement": "GI50", "setting": "OVCAR-5", "result": "17 µM (inactive)"}, {"measurement": "GI50", "setting": "RPMI-8226", "result": "0.721 µM (active)"}, {"measurement": "GI50", "setting": "SF-295", "result": "17.8 µM (inactive)"}, {"measurement": "GI50", "setting": "SF-539", "result": "15.9 µM (inactive)"}, {"measurement": "GI50", "setting": "SK-MEL-2", "result": "26.2 µM (inactive)"}, {"measurement": "GI50", "setting": "SNB-19", "result": "18.3 µM (inactive)"}, {"measurement": "GI50", "setting": "SNB-75", "result": "18.8 µM (inactive)"}, {"measurement": "GI50", "setting": "T47D", "result": "2.19 µM (inactive)"}, {"measurement": "GI50", "setting": "TK-10", "result": "2.27 µM (inactive)"}, {"measurement": "GI50", "setting": "UO-31", "result": "2.79 µM (inactive)"}]}
{"compound": "Oc1c(CN2CCOCC2)ccc2cccnc12", "values": [{"measurement": "GI50", "setting": "A498", "result": "> 10 µM (inactive)"}, {"measurement": "GI50", "setting": "DU-145", "result": "> 10 µM (inactive)"}, {"measurement": "GI50", "setting": "K562", "result": "4.4 µM (inactive)"}, {"measurement": "GI50", "setting": "LOX IMVI", "result": "> 10 µM (inactive)"}, {"measurement": "GI50", "setting": "MDA-MB-231", "result": "> 10 µM (inactive)"}, {"measurement": "GI50", "setting": "MOLT-4", "result": "4.11 µM (inactive)"}, {"measurement": "GI50", "setting": "NCI-H226", "result": "> 10 µM (inactive)"}, {"measurement": "GI50", "setting": "NCI-H460", "result": "4.63 µM (inactive)"}, {"measurement": "GI50", "setting": "NCI/ADR-RES", "result": "2.34 µM (inactive)"}, {"measurement": "GI50", "setting": "OVCAR-5", "result": "> 10 µM (inactive)"}, {"measurement": "GI50", "setting": "RPMI-8226", "result": "> 10 µM (inactive)"}, {"measurement": "GI50", "setting": "SF-295", "result": "> 10 µM (inactive)"}, {"measurement": "GI50", "setting": "SF-539", "result": "> 10 µM (inactive)"}, {"measurement": "GI50", "setting": "SK-MEL-2", "result": "> 10 µM (inactive)"}, {"measurement": "GI50", "setting": "SNB-19", "result": "> 10 µM (inactive)"}, {"measurement": "GI50", "setting": "SNB-75", "result": "> 10 µM (inactive)"}, {"measurement": "GI50", "setting": "T47D", "result": "7.41 µM (inactive)"}, {"measurement": "GI50", "setting": "TK-10", "result": "> 10 µM (inactive)"}, {"measurement": "GI50", "setting": "UO-31", "result": "8.38 µM (inactive)"}]}
{"compound": "COc1ccc(CNc2nc3ccccc3nc2-c2cccs2)cc1", "values": [{"measurement": "GI50", "setting": "A498", "result": "29.4 µM (inactive)"}, {"measurement": "GI50", "setting": "DU-145", "result": "> 100 µM (inactive)"}, {"measurement": "GI50", "setting": "HL-60", "result": "61.7 µM (inactive)"}, {"measurement": "GI50", "setting": "K562", "result": "23.6 µM (inactive)"}, {"measurement": "GI50", "setting": "LOX IMVI", "result": "12.2 µM (inactive)"}, {"measurement": "GI50", "setting": "MDA-MB-231", "result": "23.6 µM (inactive)"}, {"measurement": "GI50", "setting": "MOLT-4", "result": "5.31 µM (inactive)"}, {"measurement": "GI50", "setting": "NCI-H226", "result": "> 100 µM (inactive)"}, {"measurement": "GI50", "setting": "NCI-H460", "result": "24.2 µM (inactive)"}, {"measurement": "GI50", "setting": "NCI/ADR-RES", "result": "17.4 µM (inactive)"}, {"measurement": "GI50", "setting": "OVCAR-5", "result": "> 100 µM (inactive)"}, {"measurement": "GI50", "setting": "RPMI-8226", "result": "21.5 µM (inactive)"}, {"measurement": "GI50", "setting": "SF-295", "result": "46.7 µM (inactive)"}, {"measurement": "GI50", "setting": "SF-539", "result": "> 100 µM (inactive)"}, {"measurement": "GI50", "setting": "SNB-75", "result": "> 100 µM (inactive)"}, {"measurement": "GI50", "setting": "T47D", "result": "22.9 µM (inactive)"}, {"measurement": "GI50", "setting": "TK-10", "result": "94.2 µM (inactive)"}, {"measurement": "GI50", "setting": "UO-31", "result": "15.4 µM (inactive)"}]}
